Test results from patent publication US20100286038A1, “FORMULATION CONTAINING CYCLIN-DEPENDENT KINASE INHIBITING COMPOUND AND METHOD OF TREATING TUMORS USING THE SAME” (priority 2007, published 2010).
Like-named read-outs stand apart in the source and are kept apart here.

Description: The contents of the IV bag were infused over a two hour period. […] Each patient was dosed on a 28 day cycle, comprising an infusion once a week for the first three weeks of the cycle on days 1, 8, and 15 of each cycle, with no dose administered in the week following the third dose.
[1] = Table VII, 2 hour IV infusion, 50 mg/m^2, N 10
[2] = Table VII, 2 hour IV infusion, 58 mg/m^2, N 3
[3] = Table VIII cumulative data, Day 1, 2-hour IV infusion, 0.66 mg/m^2, N 1
[4] = Table VIII cumulative data, Day 1, 2-hour IV infusion, 1.32 mg/m^2, N 1
[5] = Table VIII cumulative data, Day 1, 2-hour IV infusion, 1.85 mg/m^2, N 5
[6] = Table VIII cumulative data, Day 1, 2-hour IV infusion, 1.85 mg/m^2, N = 4
[7] = Table VIII cumulative data, Day 1, 2-hour IV infusion, 2.59 mg/m^2, N 3
[8] = Table VIII cumulative data, Day 1, 2-hour IV infusion, 2.59 mg/m^2, N = 2
[9] = Table VIII cumulative data, Day 1, 2-hour IV infusion, 3.63 mg/m^2, N 7
[10] = Table VIII cumulative data, Day 1, 2-hour IV infusion, 3.63 mg/m^2, N = 6
[11] = Table VIII cumulative data, Day 1, 2-hour IV infusion, 3.7 mg/m^2, N 1
[12] = Table VIII cumulative data, Day 1, 2-hour IV infusion, 5.08 mg/m^2, N 3
[13] = Table VIII cumulative data, Day 1, 2-hour IV infusion, 7.11 mg/m^2, N 1
[14] = Table VIII cumulative data, Day 1, 2-hour IV infusion, 7.4 mg/m^2, N 1
[15] = Table VIII cumulative data, Day 1, 2-hour IV infusion, 14.8 mg/m^2, N 1
[16] = Table VIII cumulative data, Day 1, 2-hour IV infusion, 29.6 mg/m^2, N 6
[17] = Table VIII cumulative data, Day 1, 2-hour IV infusion, 29.6 mg/m^2, N = 5
[18] = Table VIII cumulative data, Day 1, 2-hour IV infusion, 41.4 mg/m^2, N 6
[19] = Table VIII cumulative data, Day 1, 2-hour IV infusion, 50 mg/m^2, N 10
[20] = Table VIII cumulative data, Day 1, 2-hour IV infusion, 58 mg/m^2, N 3
[21] = Table VIII cumulative data, Day 1, 2-hour IV infusion, […]^2, N 1

CCc1cnn2c(NCc3ccc[n+]([O-])c3)cc(N3CCCC[C@H]3CCO)nc12 [Formula II]
AUC(I) Mean [1]: 4090 ng·h/mL | CL Mean [1]: 16.3 L/hr/m^2 | t½ Mean [1]: 2.90 h | AUC(I) Mean [2]: 3300 ng·h/mL | CL Mean [2]: 19.7 L/hr/m^2 | t½ Mean [2]: 3.15 h | AUC(I) Mean [3]: 32.1 ng·h/mL | CL Mean [3]: 20.6 L/hr/m^2 | Cmax Mean [3]: 18.6 ng/mL | Tmax Median [3]: 2 h | t½ Mean [3]: 1.48 h | Cmax Mean [4]: 63.8 ng/mL | Tmax Median [4]: 2 h | Cmax Mean [5]: 91.0 ng/mL | Tmax Median [5]: 2 h | AUC(I) Mean [6]: 201 ng·h/mL | CL Mean [6]: 10.2 L/hr/m^2 | t½ Mean [6]: 2.29 h | Cmax Mean [7]: 124 ng/mL | Tmax Median [7]: 1 h | AUC(I) Mean [8]: 213 ng·h/mL | CL Mean [8]: 12.9 L/hr/m^2 | t½ Mean [8]: 3.02 h | Cmax Mean [9]: 195 ng/mL | Tmax Median [9]: 1 h | AUC(I) Mean [10]: 446 ng·h/mL | CL Mean [10]: 11.3 L/hr/m^2 | t½ Mean [10]: 2.63 h | AUC(I) Mean [11]: 336 ng·h/mL | CL Mean [11]: 11.0 L/hr/m^2 | Cmax Mean [11]: 136 ng/mL | Tmax Median [11]: 2 h | t½ Mean [11]: 2.75 h | AUC(I) Mean [12]: 327 ng·h/mL | CL Mean [12]: 15.9 L/hr/m^2 | Cmax Mean [12]: 173 ng/mL | Tmax Median [12]: 2 h | t½ Mean [12]: 3.19 h | AUC(I) Mean [13]: 588 ng·h/mL | CL Mean [13]: 12.1 L/hr/m^2 | Cmax Mean [13]: 347 ng/mL | Tmax Median [13]: 1 h | t½ Mean [13]: 3.16 h | AUC(I) Mean [14]: 972 ng·h/mL | CL Mean [14]: 7.62 L/hr/m^2 | Cmax Mean [14]: 353 ng/mL | Tmax Median [14]: 2 h | t½ Mean [14]: 2.86 h | AUC(I) Mean [15]: 1050 ng·h/mL | CL Mean [15]: 14.1 L/hr/m^2 | Cmax Mean [15]: 396 ng/mL | Tmax Median [15]: 2 h | t½ Mean [15]: 2.78 h | Cmax Mean [16]: 890 ng/mL | Tmax Median [16]: 1 h | AUC(I) Mean [17]: 2430 ng·h/mL | CL Mean [17]: 14.0 L/hr/m^2 | t½ Mean [17]: 2.98 h | AUC(I) Mean [18]: 2890 ng·h/mL | CL Mean [18]: 26.8 L/hr/m^2 | Cmax Mean [18]: 1300 ng/mL | Tmax Median [18]: 2 h | t½ Mean [18]: 2.84 h | AUC(I) Mean [19]: 4090 ng·h/mL | CL Mean [19]: 16.3 L/hr/m^2 | Cmax Mean [19]: 1820 ng/mL | Tmax Median [19]: 1.5 h | t½ Mean [19]: 2.90 h | AUC(I) Mean [20]: 3300 ng·h/mL | CL Mean [20]: 19.7 L/hr/m^2 | Cmax Mean [20]: 1460 ng/mL | Tmax Median [20]: 1 h | t½ Mean [20]: 3.15 h | CL Mean [21]: 13.1 L/hr/m^2 | Tmax Median [21]: 1 h | t½ Mean [21]: 2.01 h | clearance versus dose (dosages of from […]^2 to 41.4 mg/m^2): clearance is dosage independent | exposure (AUC) versus dose (dosages of from […]^2 to 41.4 mg/m^2, day 1 and day 15): dose-proportional increases in exposure | AUC (two hour infusion, 3.7 mg/M^2): about 336 ng hr/mL | Cmax (two hour infusion, 3.7 mg/M^2): about 136 ng/ml | t1/2 (two hour infusion, 3.7 mg/M^2): about 2.75 hours | Cmax (two hour infusion, 7.4 mg/M^2): about 353 ng/ml | t1/2 (two hour infusion, 7.4 mg/M^2): about 2.86 hours | Cmax (two hour infusion, 14.8 mg/M^2): about 396 ng/ml | t1/2 (two hour infusion, 14.8 mg/M^2): about 2.78 hours | t1/2 (two hour infusion, 41.4 mg/M^2): about 2.8 hours | Cmax (two hour infusion, 50 mg/M^2): about 1820 ng/ml | t1/2 (two hour infusion, 50 mg/M^2): about 2.9 hours | Cmax (two hour infusion, 58 mg/M^2): about 1460 ng/ml | t1/2 (two hour infusion, 58 mg/M^2): about 3.2 hours
